Reference: US9137997B2 (priority 2011, dated 2015)

Cc1ccc2sc3c(=O)n(C)c(=O)c=3sc2c1
melting point: 171 to 176 °C
